# In patent publication US4062973A, “Sulfur-containing derivatives of cyclohexylphenyl-ethane” (Boehringer Ingelheim GmbH, priority 1975, dated 1977):
# Where two headings read alike, the source gives them in different places.
# Key:
# white mice = assay: Acute toxicity in white mice after oral application of a single dose; format: in vivo; conditions: 1000 mgm/kg, observation time 14 days
# Method: (§1) The acute toxicity of the compounds was determined in white mice (observation time: 14 days) after oral application of a single dose: […]
# [1] = as above; format: in vivo; conditions: mouse, in vivo, observation time 14 days
# Method: as §1
# mice = assay: Determination of the prolongation of the bleeding time; format: in vivo; conditions: 10 mgm/kg orally, awake mice, compared with untreated control group
# Method: 2. determination of the prolongation of the bleeding time:
# To determine the effect on the bleeding time, 10 mgm/kg of the test compound were administered orally to awake, unanesthetized mice. After 1 hour, and again after 3 hours, about 0.5 mm from the end of the tail of each animal was cut off, and the exuded blood was carefully soaked up into filter paper every 30 seconds. The number of drops of blood so obtained provided a measure for the bleeding time (5 animals/experiment).
# The numbers in Table II represent the prolongation in %, compared with an untreated control group: […]
# [2] = system: platelet-rich plasma of healthy human donors; assay: Determination of platelet aggregation by the method of Born and Cross (collagen-induced, platelet-rich plasma); format: cell-based; conditions: 10^-4 mol/lit., compared with control batch without test compound; for inhibition at 100 µM: Homo sapiens, Platelet
# Method: 1. Determination of platelet aggregation by the method of Born and Cross (see J. Physiol. 170, 397 (1964)):
# The platelet aggregation was measured in the platelet-rich plasma of healthy human donors. The alterations of the optical density of the platelet suspension was measured and recorded photometrically after the addition of commercial collagen manufactured by Hormonchemie, Munich, Germany, containing 1 mgm of collagen fibrils per ml. From the angle of inclination of the density curve, the rate of aggregation was estimated (Vmax). The optical density (O.D.) was taken at the point on the curve where the most light was transmitted. Small doses of collagen were chosen, but sufficient to give irreversible aggregation. To provoke maximum aggregation, about 0.01 ml of the collagen solution was added to 1 ml of platelet-rich plasma.
# The numbers in Table I represent the % reduction in the aggregation rate (Vmax) and the % change in optical density (O.D.), compared with a control batch without addition of a test compound.
# [3] = read-out: % Reduction (change) in optical density (O.D.)
# [4] = read-out: % Reduction in the aggregation rate (Vmax)
SMILES,Acute toxicity: animals died (white mice),LD50 at 336 h [1],Prolongation of the bleeding time in % after 1 hour (mice),Prolongation of the bleeding time in % after 3 hours (mice),% Reduction (change) in optical density (O.D.) ([2]; 100 µM),% Reduction in the aggregation rate (Vmax) ([2]; 100 µM),"inhibition at 100 µM [2, 3]","inhibition at 100 µM [2, 4]"
"CC(c1ccc(C2CCCCC2)cc1)[S+]([O-])CC(=O)O (stereo not drawn) [Compound A, [1-(4'-cyclohexyl-phenyl)-ethylsulfinyl]-acetic acid]",0 out of 10,> 1000 mg/kg,300%,122%,,,,
"CCOC(=O)C[S+]([O-])C(C)c1ccc(C2CCCCC2)c(Cl)c1 (stereo not drawn) [D, Ethyl [1-(3'-chloro-4'-cyclohexyl-phenyl)-ethylsulfinyl]-acetate]",,,49%,,89%,87%,,
"COC(=O)C[S+]([O-])C(C)c1ccc(C2CCCCC2)cc1 (stereo not drawn) [B, methyl [1-(4'-cyclohexyl-phenyl)-ethylsulfinyl]-acetate]",0 out of 10,> 1000 mg/kg,117%,51%,,,,
"CC(c1ccc(C2CCCCC2)c(Cl)c1)[S+]([O-])CC(=O)N1CCCCC1 (stereo not drawn) [E, [1-(3'-chloro-4'-cyclohexyl-phenyl)-ethylsulfinyl]-acetic acid piperidide]",0 out of 10,> 1000 mg/kg,37%,,,,92%,90%
"COC(=O)C[S+]([O-])C(C)c1ccc(C2CCCCC2)c(Cl)c1 (stereo not drawn) [C, methyl [1-(3'-chloro-4'-cyclohexyl-phenyl)-ethylsulfinyl]-acetate]",,,,,,,89%,85%
